# Results reported in US20200061036A1, “ACECLIDINE ISOMERS AND SCALEMIC MIXTURES THEREOF FOR THE TREATMENT OF PRESBYOPIA” (Presbyopia Therapies, LLC, priority 2018, published 2020).
# Columns and labels:
# [1] = test system: accommodation; conditions: cited from earlier work
# [2] = test system: subject; assay: Net gain in lines of visual acuity at 45 centimeters after binocular instillation of aceclidine enantiomer solutions (Example 1, prophetic); assay type: in vivo; conditions: for Net gain in lines of visual acuity versus baseline, monocularly: first figure of cell; for Net gain in lines of visual acuity versus baseline, binocularly: second figure of cell
# Experimental: Solutions containing scalemic mixtures of or enantiomerically pure aceclidine in 1.50% w/v polysorbate 80, 1.2% w/v hydroxypropylmethyl cellulose, 0.1% w/v disodium ethylenediaminetetraacetic acid, 0.1% w/v sorbate in 0.9% w/v sodium chloride buffered saline at a pH of 6.5 were instilled, binocularly in a subject. The subject's visual acuity at 45 centimeters was then tested both monocularly and binocularly. Net gain in lines of visual acuity versus baseline monocularly/binocularly are shown in Table 1 below at 1, 2 and 5 hours post-instillation.
Molecule,"induced accommodation ([1]; as little as, with a range of variability) [D]","induced accommodation documented in presbyopes ([1]; 2% concentration, presbyopes) [D]","Net gain in lines of visual acuity versus baseline, monocularly ([2]; 1 hour post-instillation)","Net gain in lines of visual acuity versus baseline, binocularly ([2]; 1 hour post-instillation)","Net gain in lines of visual acuity versus baseline, monocularly ([2]; 2 hours post-instillation) [lines]","Net gain in lines of visual acuity versus baseline, binocularly ([2]; 2 hours post-instillation) [lines]","Net gain in lines of visual acuity versus baseline, monocularly ([2]; 5 hours post-instillation) [lines]","Net gain in lines of visual acuity versus baseline, binocularly ([2]; 5 hours post-instillation) [lines]"
CC(=O)OC1CN2CCC1CC2 (centres unmarked) [aceclidine],−0.37,–,–,–,–,–,–,–
"CC[C@@H]1C(=O)OC[C@@H]1Cc1cncn1C [Pilocarpine, pilocarpine]",–,≥ −5,–,–,–,–,–,–
aceclidine [87.5/12.5],–,–,1.75 lines,3.25 lines,1.40,2.90,0.90,2.25
"CC(=O)OC1CN2CCC1CC2 (centres unmarked) [50/50, aceclidine]",–,–,2.00 lines,3.00 lines,1.50,2.50,1.00,1.50
aceclidine [25/75],–,–,1.50/1.50 lines,1.50/1.50 lines,0.75,1.25,0.50,1.00
"CC(=O)OC1CN2CCC1CC2 (centres unmarked) [100/0, aceclidine]",–,–,2.00 lines,3.50 lines,1.75,3.00,1.50,2.50
aceclidine [62.5/22.5],–,–,1.40 lines,3.20 lines,1.70,2.70,1.20,1.60
aceclidine [75/25],–,–,1.50 lines,2.50 lines,1.20,2.80,0.70,2.00
